Experimental data reported in patent US7713960B2, “Inhibition of the Raf/Mek/P-Erk pathway for treating cancer” (University of South Florida, priority 2005, dated 2010).
Where “and” joins values, the source holds several entries; their conditions need not be identical. Equal entries are not always repeated. Structures can show the parent of a compound that is named as a salt.

Assays:
Mek-1 = assay: In vivo kinase assay, intact MDA-MB-231 cells treated, Mek-1; type: cell-based, human; settings: 10 μM
Protocol: (§1) In Vitro Kinase Assays—MDA-MB-231 cells (2×10^6) were lysed for 30 minutes at 4° C. in RIPA-150 buffer (10 mM Tris pH 7.5, 150 mM NaCl, 10% glycerol, 5 mM EDTA, 1% Triton X-100, 0.1% SDS, 100 μM sodium orthovanadate, 1 μM aprotinin, 10 μM leupeptin, 10 μM antipain). Cell debris was pelleted at 13000 rpm for 15 minutes at 4° C. and the lysate was rocked overnight with 10 μg of either c-Raf or MEK antibodies (Santa Cruz Biotechnologies, Santa Cruz, Calif.). 25 μl of protein A/G PLUS agarose (Santa Cruz Biotechnology) was then added and rocked for 4 hours at 4° C. Samples were spun at 2000 rpm for 5 minutes to collect the agarose beads, which were then washed four times with lysis buffer. On the final wash each pellet was divided into 5. […]

c-Raf-1 = target: T1, c-Raf-1 (Homo sapiens, UniProt P04049); assay: In vitro kinase assay, c-Raf-1 immunoprecipitated from MDA-MB-231 cells; type: biochemical; settings: immunoprecipitated kinase treated in vitro, 10 μM
T1 construct: c-Raf-1 and Mek-1, immunoprecipitated from MDA-MB-231 cells; endogenous in cells; host or cells: MDA-MB-231
Protocol: as §1

SNB-19 cells = assay: Nude mouse xenograft model, SNB-19 (s.c.); type: in vivo, nude mice; settings: SNB-19 xenograft; i.p. 75 mpk/day
Source text: (§2) Anti-tumor activity in nude mouse xenograft model—Female athymic nude (nu/nu) mice, 5-6 weeks old, were purchased from Charles River (Wilmington, Mass.) and allowed to acclimate in the animal facility for one week. After harvesting, A-549, SNB-19, ACHN, and HCT-116 cells were, resuspended in sterile PBS, and injected s.c. into the right and left flanks (10×10^6 cells per flank) of the mice as previously described (Sun et al., 2005). For MDA-MB-231, cells were harvested and resuspended in PBS (10×10^6 cells per 50 μl) and an equal volume of Matrigel (BD Biosciences, San Jose, Calif.). 100 μl of MDA-MB-231 cells in PBS/Matrigel were injected s.c. into the mammary fat pads between the 2nd and 3rd nipples on each side of the mice. Once the tumors reached approximately 200-300 mm^3 the mice were randomized and treated i.p. with 0.1 ml vehicle (PBS) or ARA-211. Each treatment group consisted of five mice (2 tumors per mouse, a total of 10 tumors). The tumor volumes were determined by measuring the length (l) and width (w) and calculating the volume (V=w^2l/2). Statistical significance between the control and treated animals was determined using a student's t test.

protein kinase A (PKA) = assay: PKA kinase assay, MDA-MB-231 cells; type: cell-based, human
Protocol: PKA Kinase Assay—PKA kinase assays were performed with the SignaTECT® cAMP-Dependent Protein Kinase (PKA) Assay System (Promega, Madison Wis.) according to the manufacturer's protocol. Briefly, cells were plated (5×10^6) into 100 mm dishes and treated the next day with ARA-211, H-89 (EMD Biosciences), or vehicle. Cells were lysed using a Dounce homogenizer and lysates were incubated in the supplied kinase reaction buffer, with ^32P-ATP and biotin labeled PKA peptide substrate for 5 min at 37° C. Once the reactions were quenched they were spotted onto streptavidin membranes and ^32P-ATP transfer was measured via scintillation counter.

HCT-116 cells [1] = assay: Apoptosis assay (Cell Death Detection ELISA), HCT-116; type: cell-based, human; settings: 48 hours, two single values, dihydrochloride
Protocol: Apoptosis Assay—Apoptosis was analyzed using the Cell Death Detection ELISA (Roche, Indianapolis, Ind.) measuring cytoplasmic histone-associated mono- and oligonucleosome DNA fragments. Procedures were carried out according to the manufacturers protocol. Briefly, 1×10^5 cells were plated in 60 mm dishes and treated with various doses of ARA-211 or vehicle for 48 hours. Cells were lysed with the provided lysis buffer and lysate was incubated on the ELISA plate for 1 hour to capture the histone associated DNA indicative of apoptotic cells. Anti-DNA peroxidase conjugated antibody was added to detect the cleaved DNA and the microplate was washed and developed with ABTS substrate which was quantitated by microplate reader at 405 nm.

P-c-Raf-1 = P-c-Raf-1 levels (Western blotting), MDA-MB-231; type: cell-based, human
Protocol: Western Blotting—Treated cell samples were lysed in 30 mM HEPES, 10 mM NaCl, 5 mM MgCl2, 25 mM NaF, 1 mM EGTA, 1% Triton-X-100, 10% Glycerol, 2 mM Sodium orthovanidate, 10 μg/mL aprotinin, 10 μg/mL soybean trypsin inhibitor, 25 μg/mL leupeptin, 2 mM phenylmethylsulfonylfluoride (PMSF), 6.4 mg/mL p-nitrophenylphosphate for 30 minutes at 4° C., and proteins run on SDS-PAGE gels then transferred to nitrocellulose membranes. Membranes were blocked in either 5% milk in PBS, pH 7.4, containing 0.1% Tween-20 (PBS-T) or 1% BSA in TBS, pH 7.5, containing 0.1% Tween-20 (TBS-T). Phospho-STAT3 and phospho-AKT antibodies were diluted in 1% BSA in TBS-T while phospho-c-Raf, phospho-Mek, and phospho-p44/p42 MAPK antibodies (Cell Signaling) were diluted in 5% milk in PBS-T for either 1 hour at room temperature or overnight at 4° C. HRP-conjugated secondary antibodies (Jackson ImmunoResearch, West Grove, Pa.) were diluted in 5% milk in PBS-T or TBS-T at a 1:1000 dilution for one hour at room temperature. Western blots results were visualized using enhanced chemiluminescence. Stripping of the membranes for reblotting was done using stripping buffer (62.5 mM Tris pH 7.6, 2% SDS, 0.7% 2-mercaptoethanol) at 50° C. for 30 minutes.

HCT-116 cells [2] = assay: Nude mouse xenograft model, HCT-116 (s.c.); type: in vivo, nude mice; settings: HCT-116 xenograft; i.p. 75 mpk/day
Source text: as §2

P-Erk 1/2 = assay: Growth factor (EGF) stimulation of P-Erk 1/2, MDA-MB-231 cells; type: cell-based, human

T1 sequence (P04049 whole entry): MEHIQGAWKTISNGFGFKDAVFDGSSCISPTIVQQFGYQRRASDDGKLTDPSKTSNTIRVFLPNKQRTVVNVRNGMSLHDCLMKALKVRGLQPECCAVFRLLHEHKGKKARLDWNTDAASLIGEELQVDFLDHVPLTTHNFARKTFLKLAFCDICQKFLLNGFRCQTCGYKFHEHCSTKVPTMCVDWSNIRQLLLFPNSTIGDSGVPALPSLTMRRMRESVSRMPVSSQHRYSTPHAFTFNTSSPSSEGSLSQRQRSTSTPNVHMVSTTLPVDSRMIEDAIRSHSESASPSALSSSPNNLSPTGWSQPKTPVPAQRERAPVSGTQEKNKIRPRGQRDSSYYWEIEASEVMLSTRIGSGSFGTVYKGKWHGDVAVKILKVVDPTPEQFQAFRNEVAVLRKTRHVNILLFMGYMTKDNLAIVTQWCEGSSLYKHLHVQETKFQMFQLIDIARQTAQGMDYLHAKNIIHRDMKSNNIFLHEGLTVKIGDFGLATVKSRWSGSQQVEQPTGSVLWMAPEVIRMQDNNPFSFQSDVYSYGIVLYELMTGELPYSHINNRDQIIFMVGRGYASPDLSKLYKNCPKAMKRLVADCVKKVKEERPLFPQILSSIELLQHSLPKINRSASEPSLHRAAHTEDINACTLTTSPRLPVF

`CC(C)(C)NCC(O)c1ccc(O)c(CO)n1` (centres unmarked) [ARA-211, 2-hydroxymethyl-3-hydroxy-6-(1-hydroxy-2-tert-butylaminoethyl) pyridine, dihydrochloride] was tested. Which “Mek-1 kinase activity, intact cells first treated” value (Mek-1) did it give?
Its value is “blocked”.

And the “in vitro c-Raf-1 kinase activity” value (c-Raf-1)?
Its value is “did not inhibit”.

And the growth of tumors (SNB-19 cells)?
The growth of tumors was “is not affected”.

What about the “activation of protein kinase A (PKA)” value (protein kinase A (PKA)) of the same compound?
Its value is “activation of protein kinase A (PKA)”.

And the “Apoptosis (% Induction)” value (HCT-116 cells [1])?
The value was 0% and 1.2%.

And the P-c-Raf-1 levels (P-c-Raf-1)?
Its P-c-Raf-1 levels is “not”.

What about the growth of tumors (HCT-116 cells [2]) of the same compound?
The growth of tumors was “is not affected”.

What about the “growth factor (EGF) stimulation of P-Erk 1/2” value (P-Erk 1/2) of the same compound?
Its value is “is blocked”.
